This note sets out measurements from ChEMBL document CHEMBL6182831, “Thiazole-fused androstenone and ethisterone derivatives: potent β- and γ-actin cytoskeleton inhibitors to treat melanoma tumors” (RSC Med Chem, 2025).

Calls of active or inactive are those of the source. The calls are words filed in the database; no cut-off is given here.

Test [1] concerns B16-F10. Nature of the test: Antitumor activity against mouse B16-F10 cells implanted in C57BL/6 mouse assessed as inhibition of tumor growth at 40 mg/kg, ip administered once daily from 6 to 9 days and every alternate days till 18. It is filed as functional, organism-based. The note with it: time 13.0 day.
Test [2] deals with B16-F10. Description: Inhibition of cell adhesion in mouse B16-F10 cells assessed as reduction in number of adherent cells incubated for 1.5 hrs. It is filed as functional, cell-based.
The test system of test [3] is SK-MEL-28. Description: Induction of cell cycle arrest in human SK-MEL-28 cells assessed as accumulation of cells at G2/M phase at 3 uM incubated for 24 hrs by PI staining based flow cytometry analysis. It is filed as functional.
The subject of test [4] is B16-F10. Nature of the test: Inhibition of colony formation in mouse B16-F10 cells at 6 uM incubated for 6 days by crystal violet staining based analysis. It is filed as functional. Conditions: B16-F10, 144 h, time 6 day.
In test [5] the test system is B16-F10. Description: Antitumor activity against mouse B16-F10 cells implanted in C57BL/6 mouse assessed as reduction of tumor weight at 40 mg/kg, ip administered once daily from 6 to 9 days and every alternate days till 18. It is filed as functional, organism-based. The note with it: time 13.0 day.
Test [6] deals with SK-MEL-28. Nature of the test: Inhibition of colony formation in human SK-MEL-28 cells at 3 uM incubated for 6 days by crystal violet staining based analysis. The note with it: SK-MEL-28, 144 h, time 6 day. It is filed as functional.
Test [7] concerns B16-F10. Nature of the test: Inhibition of colony formation in mouse B16-F10 cells at 3 uM incubated for 6 days by crystal violet staining based analysis. The note with it: B16-F10, 144 h, time 6 day. It is filed as functional.
Test [8] has as its system B16-F10. Description: Induction of apoptosis in mouse B16-F10 cells at 8 uM measured for 24 hrs by Annexin V FITC/PI staining based flow cytometry analysis. It is filed as functional, cell-based. (In general: A flow cytometer gives signals particle by particle.)
The subject of test [9] is B16-F10. Description: Inhibition of cell adhesion in mouse B16-F10 cells at 1.5 uM incubated for 1.5 hrs. It is filed as functional, cell-based.
Test [10] deals with B16-F10. Nature of the test: Inhibition of cell migration in mouse B16-F10 cells at 2 uM incubated for 24 hrs by wound healing assay. It is filed as functional, cell-based.
Test [11] has as its system SK-MEL-28. Description: Inhibition of colony formation in human SK-MEL-28 cells at 6 uM incubated for 6 days by crystal violet staining based analysis. It is filed as functional. Conditions: SK-MEL-28, 144 h, time 6 day.
Test [12] concerns SK-MEL-28. Description: Cytotoxicity against human SK-MEL-28 cells assessed as inhibition of cell growth incubated for 24 hrs by resazurin staining based analysis. It is filed as functional. Conditions: SK-MEL-28, 24 h.
Another test relates to SK-MEL-25. Description: Cytotoxicity against human SK-MEL-25 cells assessed as inhibition of cell growth incubated for 24 hrs by resazurin staining based analysis. It is filed as functional. The note with it: SK-MEL-25, 24 h. On the technique in general: Alamar Blue is a resazurin reagent that responds to reducing activity.
The subject of test [13] is B16-F10. Description: Cytotoxicity against mouse B16-F10 cells assessed as inhibition of cell growth incubated for 24 hrs by resazurin staining based analysis. Conditions: B16-F10, 24 h. It is filed as functional.
A further test deals with LOX IMVI. Description: Cytotoxicity against human LOX IMVI cells assessed as inhibition of cell growth incubated for 24 hrs by resazurin staining based analysis. It is filed as functional.
In the next test the test system is SK-MEL-5. Nature of the test: Cytotoxicity against human SK-MEL-5 cells assessed as inhibition of cell growth incubated for 24 hrs by resazurin staining based analysis. It is filed as functional. Conditions: SK-MEL-5, 24 h.
In test [14] the test system is SK-MEL-28. Nature of the test: Downregulation of ACTB level in human SK-MEL-28 cells at 2 uM measured for 24 hrs by qRT-PCR analysis. It is filed as functional, cell-based. A general note: In qPCR the cycle at which signal appears reflects the starting amount.
For test [15], the system named is SK-MEL-28. Nature of the test: Inhibition of cell migration in human SK-MEL-28 cells at 1 uM incubated for 24 hrs by wound healing assay. It is filed as functional, cell-based.
Test [16] has as its system SK-MEL-28. Nature of the test: Inhibition of cell adhesion in human SK-MEL-28 cells at 1.5 uM incubated for 1.5 hrs. It is filed as functional, cell-based.
Test [17] has as its system SK-MEL-28. Description: Inhibition of colony formation in human SK-MEL-28 cells at 6 uM incubated for 8 days by crystal violet staining based analysis. It is filed as functional. Conditions: SK-MEL-28, 192 h, time 8 day.
Test [18] deals with SK-MEL-28. Description: Inhibition of cell adhesion in human SK-MEL-28 cells assessed as reduction in number of adherent cells incubated for 1.5 hrs. It is filed as functional, cell-based.
The subject of test [19] is SK-MEL-28. Nature of the test: Inhibition of colony formation in human SK-MEL-28 cells at 3 uM incubated for 8 days by crystal violet staining based analysis. Conditions: SK-MEL-28, 192 h, time 8 day. It is filed as functional.

As for `C#C[C@]1(O)CC[C@H]2[C@@H]3CC=C4c5sc(Nc6ccc(F)cc6F)nc5CC[C@]4(C)[C@H]3CC[C@@]21C`, the TGI entry with B16-F10 [1] is “Active”. Further, the inhibition result in the test with B16-F10 [2], with B16-F10 [9], in the test with B16-F10 [10], in the test on SK-MEL-28 [15], in the test on SK-MEL-28 [16] and in the test on SK-MEL-28 [18] was “Active” in each case. The outcome in the test on SK-MEL-28 [3], in the test on B16-F10 [5], with B16-F10 [8] and with SK-MEL-28 [14] was Active. Besides, the inhibition at 6 µM in the test on B16-F10 [4], with SK-MEL-28 [11] and in the test with SK-MEL-28 [17] was 100% in each case. For the same compound, the inhibition at 3 µM in the test on SK-MEL-28 [6], with B16-F10 [7] and with SK-MEL-28 [19] was 100% in each case. The IC50 (in general, the concentration that gives 50% inhibition) was determined as 1800 nM in the test on SK-MEL-28 [12]; 2400 nM with SK-MEL-25; 2500 nM in the test on B16-F10 [13]; 1600 nM with LOX IMVI; 1900 nM with SK-MEL-5.
